Key:
[1] = target: T1, interaction between Supt4h and NGN (subunit of Supt5h) (Homo sapiens, UniProt P63272); assay: split Gaussia luciferase complementation assay (M2-8 cells); type: cell-based; details: for IC50: M2-8 cells, 24 hr treatment
T1 construct: expressed in transfected cells
Procedure: 1. Slit Gaussia Luciferase Complementation Assay […]
i pNBR-X1-Supt4-Gluc1 and pNEBR-X1-NGN-Guc2
The HA-Supt4hand Flag-NGN fragments are amplified by PR using the plasmid pHA-Supt4h-YC and pFlag-NGN-YN and sub-cloned individually into pcDNA3.1-Gluc1 and pcDNA3.1-GIuc2 (described in “A highly sensitive protein-protein interaction assay based on Gausssia Luciferase” published at Nat Methods. 2006 December; 3(12):977-9.Epub 2006 Nov. 12). Then HA-Supt4h-Gluc1 and Flag-NGN-Gluc2 are amplified by PCR and inserted to pNEBR-X1-Hygro (New England BioLabs), which contain RheoSwitch responsive element under the control of RheoSwitch ligand. […]
ii: pNEBR-X1-Supt4h-G1-NGN-G2
PCR products containing the sequence from 5XRE to polyA in pNEBR-X1-NGN-G2 are inserted to pNEBR-X1-Supt4h-G1 at Pcil site to generate Supt4h-G1 and NGN-G2 bidirectional under their own RheoSwitch responsive element and polyA in the same plasmid. […]
b. Stable Cloned Cell Line i: 293-R1 is a cloned cell which is engineered to constitutively express RSL1 receptor/activator by transfecting HEK 293 cells with pNEBR-R1 plasmid (New England BioLabs) and selected with Blasticidin. […]
ii: M2-8 is a cloned 293-R cell which can inducibly express pNEBR-X1-Supt4h-G1-NGN-G2 by addition of RSL1. Two point mutations (M431 and M1101) are introduced to the GL1 and GL2 for better stability according to “A high-throughput cell-based Gaussia luciferase reporter assay for identifying modulators of fibulin-3 secretion” published on J Biomol Screen. 2013 July; 18(6):647-58. The cell line is selected by Hygromycin. […]
c. Cell Culture and Transfection Condition
All the HEK-293 cells and derivative cell clones are maintained in DMEM containing 10% FBS plus corresponding antibiotics (250 μg/ml hygromycin B, 10 μg/ml blasticidin or both) at 37° C., 5% CO2. d. Bioluminescence Assay in Cell Lysates
For stable cell M2-8, the cells are plated into 96 well white plate directly. 24 hours later, RheoSwitch ligand together with/without test compound is added to the cells for induction/drug treatment. After 24 hr, the cells are washed with PBS and the plate was put in −20° C. freezer for overnight. After taking out the plate from freezer, lysis buffer (30 mM Tris-HCl, pH 8.0, 5 mM NaCl, 0.1% Triton X-100) with 10 μg/ml native coelenterazine (Nanolight Technology) is immediately added to the cells. The cells are lysed at room temperature for one hour in dark. After shaking for about 1 min, the signal intensities (integrated 100 ms) from the plate were read on Tecan Infinite M200 or M1000.
The split gaussia luciferase complementation assay measures the interaction between Sup4h and NGN. NGN is the subunit of Supt5h that binds to Supt4h. […] Therefore, administration of HD143 results in decreased production of mutant proteins encoded by genes that include mutant nucleotide repeats.

[2] = system: mutant HTT protein; assay: mutant HTT activity assay in induced pluripotent stem cells (Western blot); type: cell-based, human; details: HD patient iPSC; for effect on mutant HTT protein level in iPSC derived from a Huntington Disease patient: one day treatment, Western blot
Procedure: 3. Mutant HTT Activity Assay in Induced Pluripotent Stem Cells (iPSC)
Huntington disease patient iPSCs (ND36999 from Coriell Institute) were detached into single cells by Accutase (AT104 from Accutase) and plated on a 24-well plate coated with Matrigel (354277 from Corning). When the cells' confluency reaches about 70%, compounds are added to the cell culture medium StemMACS (130104368 from MiltenyiBiotec) and incubated with the cells for one day. Then the medium is removed and the cells are washed with PBS. After all liquid is removed, the plate is put in −80° C. for overnight. After taking out the plate from freezer, lysis buffer (30 mM Tris-HCl, pH 8.0, 5 mM NaCl, 0.1% Triton X-100) with complete proteinase inhibitor cocktail (5892791001 from Sigma-Aldrich) is immediately added to the cells. Cell samples are lysed on ice for 10 minutes. The supernatants from spinning (14 k rpm for 10 min) are collected. The protein concentrations are determined by BCA assay (Pierce, ThermoFisher). Equal amounts of protein are loaded onto 4-12% gel. After electrophoresis, the gels are transferred to nitrocellulose membranes by wet transfer at 35V for 16 hr. The protein level of mutant HTT, total HTT and tubulin are determined by immunoblotting with anti-poly Glutamine (MAB1574 from Millipore), anti-Huntingtin protein (MAB2166 from Millipore) and anti-alpha tubulin (AJ1034a from ABGENT). Blots are imaged on a Li-Cor Odyssey infrared imager. The bands intensities are determined by Li-Cor Odyssey software.
Using the protocol reported above, iPSCs were treated with HD143 at various doses for 24 hr. The cells were collected and lysed for protein quantification. Equal amounts of protein were applied on SDS-PAGE gel for Western Blotting. Mutant HTT protein was recognized by polyQ antibody (MAB1574 from Millipore) while wild type HTT protein was blotted by anti-Huntingtin antibody (MAB2166 from Millipore). Both proteins were scanned and quantified by Li-Cor Odyssey and normalized by tubulin.

[3] = system: mutant HTT in lymphoblastoid cells GM14044; assay: HD lymphoblastoid cell assay to assess mutant HTT reduction; type: cell-based, human; details: 72 hours
Procedure: 3. HD Lymphoblastoid Cell Assay to Assess Mutant HTT Reduction
Lymphoblastoid cells GM14044, which are derived from Juvenile HD patient with around 250 CAG repeats in the mutant HTT allele, are used for lymphoblastoid cell assays. Lymphoblastoid cells are cultured as suspension cells. Right before the compound treatments, 5×10^5 cells/well are seeded into 24 well plate in 1.5 ml RPMI culture medium plus 10% fetal bovine serum. Compounds in serial dilutions are added into the well for the indicated final concentration. Cells are maintained in 37° C., 5% CO2 incubator for 72 hours
b. Compound Effect in Reducing mHTT (IC50)
The rest of the cell/medium mixture is removed from culture plate into a 1.5 ml microcentrifuge tube, then centrifuged at 2500 rpm for 2 minutes to remove the culture medium. Cell pallets are washed with 1×PBS, then stored at −80° C. until ready for Western blot analysis. Western blot analysis is performed as described above. The intensity of HTT from untreated cells is set as 100% and the IC50 of the compound is defined as the compound concentration at which the HTT protein was reduced to 50%.

[4] = brain to plasma ratio after oral dose; type: in vivo; details: at 1 hour following a 5 mg/kg oral dose in rats
[5] = system: Gmr-Htt97Q Drosophila HD model (mutant Htt); assay: eye morphology (rough eye) analysis in Drosophila HD model; type: in vivo, Drosophila melanogaster; details: Gmr-Htt97Q/+ flies, 10 or 100 μM in media
Procedure: The Drosophila melanogaster (fruit fly) HD models used in this set of experiments carry the coding sequence of human Httexon1 with 97 CAG repeats to mimic mutant Httof Huntington's disease (HD). The Gmr::Htt97Q fly, expressing mutant Htt primarily in the neurons of Drosophila compound eyes, has a severe degeneration of photoreceptor neurons and the phenotypic trait ‘rough eye’. All of the fly stocks and genetics crosses were maintained at 25° C. on standard cornmeal yeast agar media.
2. Eye Morphology (Rough Eye) Analysis
15 adult male flies (Gmr-Htt97Q/Gmr-Htt97Q or Gmr/Gmr) were crossed with 15 virgin female flies W1118(+/+) in a vial containing standard yeast agar media with testing compound (+)-HD143 in a concentration of 10 μM or 100 μM. Parent-flies were first removed from vials at day 7, followed by a collection of newly hatched flies for ‘rough eye’ analysis. The morphology of compound eyes was captured using a Leica DMR upright microscope equipped with a digital camera (CooISNAP 5.0, Photometrics). […]
FIG. 4A. The morphology of compound eye was analyzed in fruit flies treated with or without (+)-HD143. […] To quantify the appearance of “rough eye” in Gmr-Htt97Q/+ treated with 10 and 100 μM of (+)-HD143, ten flies were randomly picked from each group and the number of flies with “rough eye” phenotype were determined under microscope. […]

SMILES	IC50 [1] [nM]	effect on Supt4h/NGN interaction ([1]; split Gaussia luciferase complementation assay)	Dose to reduce mutant HTT in HD iPSC ([2]; 24 hr)	effect on mutant HTT protein level in iPSC derived from a Huntington Disease patient [2]	IC50 [3] [nM]	[Brain]/[Plasma] [4]	fold more potent than racemic HD143 ([1]; ratio of IC50 values, split Gaussia luciferase assay) [fold]	effect on neuron degeneration phenotypes (rough eye) of mutant Htt in Drosophila HD models [5]	effect on neuron degeneration phenotypes (rough eye) of mutant Htt in Drosophila HD models ([5]; listed as (+)-HD143)
Brc1ccc2[nH]c3c(c2c1)CCCC3NCc1ccccc1 (racemic) [racemic HD143, N-benzyl-6-bromo-2,3,4,9-tetrahydro-1H-carbazol-1-amine]	30	interrupts the interaction between Sup4h and NGN	>=60 nm	decreases mutant HTT protein	90	9 at 1 hour following a 5 mg/kg oral dose in rats			
Brc1ccc2[nH]c3c(c2c1)CCC[C@H]3NCc1ccccc1 [(R)-(+)-HD143, (R)-(+)-N-benzyl-6-bromo-2,3,4,9-tetrahydro-1H-carbazol-1-amine]	15			significantly reduced mutant HTT protein level			2	alleviates neuron degeneration phenotypes	Alleviates Neuron Degeneration Phenotypes
Brc1ccc2[nH]c3c(c2c1)CCC[C@@H]3NCc1ccccc1.Cl [(S)-(−)-HD143, (S)-(−)-N-Benzyl-6-bromo-2,3,4,9-tetrahydro-1H-carbazol-1-amine Hydrochloride]	900			showed no activity					

— patent US10882821B1, “Enantiomeric compound for the reduction of the deleterious activity of extended nucleotide repeat containing genes” (THE BOARD OF TRUSTEES OF THE LELAND STANFORD JUNIOR …, priority 2017, dated 2021)
